Source: publication PMC9408991, “Antitumor Effects of a New Retinoate of the Fungal Cytotoxin Illudin M in Brain Tumor Models” (International Journal of Molecular Sciences, 2022)
Read-outs that look alike come from different tables or passages of the source.

Key:
Assay type in all cases: cell-based
[1] = tested on: MZ-54 glioblastoma cells; assay: MTT cell viability assay, MZ-54 glioblastoma; details: Homo sapiens, read-out: Inhibitory concentration IC50
Method: U251 (formerly known as U-373 MG; ECACC 09063001), Mz54 (CVCL_M406) human glioblastoma cell lines were cultured in DMEM+GlutaMax supplemented with 10% fetal bovine serum and 1% penicillin/streptomycin mixture. The human glioma cell line Mz54 was obtained from the Dept. of Neurosurgery, University Medical Centre, Johannes Gutenberg University Mainz, Germany, where this line was isolated from a recurrent grade IV glioblastoma. U251 and Mz54 cells were used in passages between 10 and 25 after re-authentication and 40 to 55 after culture establishment, respectively. Only mycoplasma-free cell cultures were used.
[…] Afterward, 10 µL of a 5 mg/mL MTT solution in PBS was added to the cells for 3 h at 37 °C. Then, the spheres were centrifuged shortly to collect the cells on the bottom of the plate, and the medium was removed by careful pipetting for both adherently grown and floating sphere GBM cultures. Afterward, formazan was dissolved in a mixture (24:1 v:v) of isopropanol and 1 M HCl using 100 µL for adherent cells by shaking the plates for at least 20 min. The absorbance of formazan (λ = 570 nm), and background (λ = 630 nm) was measured with a microplate reader (Tecan Spark, Tecan Deutschland GmbH, Crailsheim, Germany).

[2] = tested on: HL60 leukemia cells; assay: MTT cell viability assay, HL60 leukemia; details: Homo sapiens, read-out: Inhibitory concentration IC50
Method: (§1) 518A2 (Department of Radiotherapy, Medical University of Vienna, Vienna, Austria) melanoma, KB-V1^Vbl (ACC-149) cervix carcinoma, MCF-7^Topo (ACC-115) breast carcinoma, HT29 (ACC-299) colon carcinoma were cultivated in Dulbecco’s Modified Eagle Medium (DMEM) supplemented with 10% fetal bovine serum and 1% antibiotic-antimycotic at 37 °C, 5% CO2, and 95% humidity. To keep MCF-7^Topo and KB-V1^Vbl cells resistant, the maximum-tolerated doses of topotecan or vinblastine were added to the cell culture medium 24 h after every passage. The human HL60 leukemia cells were obtained from the German National Resource Center for Biological Material (DSMZ), Braunschweig. Neuroectodermal stem cells NE-4C (ATCC No. CRL-2925), primary mouse astrocytes, rat glioma C6 (ATCC No. CCL-107) and human glioma U87 (ATCC No. HTB-14) were used.
(§2) Non-GBM cells (5 × 10^4 cells/mL, 100 µL/well) were grown in 96-well plates for 24 h. […] After the addition of 12.5 µL of a 0.5% MTT solution in PBS, the cells were incubated for 3 h at 37 °C so that the water-soluble MTT could be converted to formazan crystals. Then, the plates were centrifuged (300× g, 5 min, 4 °C), the medium withdrawn, and the formazan dissolved in 25 µL of DMSO containing 10% sodium dodecylsulfate (SDS) and 0.6% acetic acid for at least 2 h at 37 °C. In the case of the HL60 cells, after 2 h, the precipitate of formazan crystals was redissolved in a 10% solution of SDS in DMSO containing 0.6% acetic acid.

[3] = tested on: primary astrocytes; assay: MTT cell viability assay, primary astrocytes; details: Mus musculus, Astrocyte, read-out: Inhibitory concentration IC50
Method: NE-4C cells derived from the anterior brain vesicles of p53-deficient 9-day-old mouse embryos were maintained in Minimum Essential Medium (MEM; Sigma Aldrich, Taufkirchen, Germany) supplemented with 5% fetal calf serum (FCS; Invitrogen-Gibco, Carlsbad, CA, USA), 4 mM glutamine (Sigma-Aldrich, Taufkirchen, Germany) and 40 ug/mL gentamycin (Chinoin, Budapest, Hungary). For maintenance, subconfluent cultures were regularly split by trypsinization (0.05 w/v% trypsin in PBS) into poly-L-lysine-coated Petri dishes. Primary astrocytes were isolated from whole brains of neonatal (P0-P3) mice, as described earlier. In brief, meninges were removed, and the tissue pieces were subjected to enzymatic dissociation, using 0.05% w/v trypsin and 0.05% w/v DNase for 10 min at room temperature. The cells were plated onto poly-L-lysine coated plastic surfaces and grown in MEM supplemented with 10% fetal calf serum, 4 mM glutamine and 40 ug/mL gentamycin. Primary neuronal cultures were prepared from embryonic (E15–E16) mouse (CD1) forebrains, as described earlier. In brief, cell suspensions were prepared by mechanical dissociation over a nylon mesh with a pore diameter of 40–42 μm. The cells were seeded at 10^5 cells/cm^2 density onto PLL-coated surfaces. The cultures were maintained in MEM supplemented with 5% FCS, 4 mM glutamine, 40 µg/mL gentamicin and 2.5 μg/mL amphotericin B (Sigma). In co-culture experiments, U87 glioma cells were seeded onto established neuronal cultures at DIV3 in a 25,000 cell/cm^2 density.
as §2

[4] = tested on: KBv1^+Vbl cervix carcinoma cells; assay: MTT cell viability assay, KBv1+Vbl cervix carcinoma; details: Homo sapiens, KB-V1/Vbl, read-out: Inhibitory concentration IC50
Method: as §1, §2

[5] = tested on: NCH644^GFP+ glioma stem-like cells; assay: Ex vivo tumor growth assay on adult organotypic brain slice cultures
Source text: For further investigation of drug efficacy and selectivity, an ex vivo tumor growth assay employing organotypic brain slice cultures of adult murine brains were used. For this purpose, GFP-expressing NCH644 (NCH644^GFP+) glioma stem-like cells were transplanted onto these slices, and after 1 day, the treatment was started and renewed three times per week, similar to our previous studies. These cultures are suitable ex vivo models, which simulate original brain architecture and the presence of vessels, including angiogenesis and microvascular proliferation as well as specific homing of GBM cells toward those vessels, while requiring much fewer laboratory animals when compared with common in vivo animal drug tests.
Adult organotypic brain slice culture was carried out as described previously. Briefly, the brains from adult C57BL/6 J (Envigo, Horst, The Netherlands) were dissected, and dura mater was removed after the mice were euthanized. Subsequently, mouse brains were placed in warm (35–40 °C) 2% low-melting agarose (Carl Roth, Karlsruhe, Germany) and cut on a Vibratome VT1000 (Leica, Wetzlar, Germany) in 150 µm thick sections. These sections were placed on Milli-cell culture inserts (Merck KGaA, Darmstadt, Germany) and cultured in 6-well plates using FCS-free medium consisting of DMEM/F12 supplied with 1× B27 and 1× N2 supplement and 100 U/mL penicillin and 100 µg/mL streptomycin (all from Gibco, Darmstadt, Germany). One day later, multiple spheres were placed on the mouse brain slices. Adequate spheres were prepared by seeding 275.000 NCH644^GFP+ cells in a total volume of 5 mL in a T25 flask. One day after sphere transplantation, pictures were taken (day 0), and the treatment was started, which was refreshed 3 times per week. Tumor growth was evaluated using FIJI, after which pictures were taken regularly with a Nikon SMZ25 stereomicroscope equipped with a P2-SHR Plan Apo 2 × objective operated by NIS elements software. As the tumor size was normalized to the size on day 0, growth curves were created.

[6] = 5 µM, treatment renewed three times per week

| Compound | IC50 ([1]; MZ-54, 24 h exposure) | IC50 ([1]; MZ-54, 48 h exposure) | IC50 ([2]; HL-60, HL60, 24 h exposure) | IC50 ([2]; HL-60, HL60, 48 h exposure) | IC50 ([3]; 24 h exposure) | IC50 ([3]; 48 h exposure) | IC50 ([4]; 24 h exposure) | IC50 ([4]; 48 h exposure) | antitumor activity (tumor growth normalized to day 0) [5, 6] | antitumor activity (tumor growth normalized to day 0) ([5]; 0.1 and 0.5 µM) | toxicity in the tumor-free regions of the brain slices ([5]; organotypic brain slices) |
| --- | --- | --- | --- | --- | --- | --- | --- | --- | --- | --- | --- |
| CC1=C2C(=CC(C)(C)[C@@H]2O)C(=O)[C@](C)(O)C12CC2 [Compound 1, illudin M] | 550 ± 160 nM | 60 ± 10 nM | 7 ± 2 nM | 1 nM | 1500 ± 400 nM | 200 ± 30 nM | 3 ± 1 nM | 2 nM | showed antitumor activity | – | – |
| CC1=C(/C=C/C(C)=C/C=C/C(C)=C/C(=O)O[C@@H]2C3=C(C)C4(CC4)[C@@](C)(O)C(=O)C3=CC2(C)C)C(C)(C)CCC1 [Compound 2, illudin M retinoate] | – | 5480 ± 1200 nM | 6800 ± 2800 nM | 4500 ± 1100 nM | 45000 ± 2000 nM | 33000 ± 4000 nM | 1600 ± 400 nM | 1200 ± 100 nM | showed antitumor activity | significantly reduced | no signs of toxicity |
